# US20250313533A1, “QUINOLINE CARBOXYLIC ACID ESTER COMPOUND AND PREPARATION METHOD AND USE THEREOF” (priority 2019, published 2025)
# Key:
# [1] = system: pathogenic bacteria causing bacterial blight in rice; assay: whole plant or invertebrate; assay type: cell-based, xanthomonas; conditions: read-out: inhibitory rate
# [2] = system: pathogenic bacteria causing bacterial angular leaf spot in cucumbers; assay: In vitro bactericidal activity, bacterial angular leaf spot in cucumbers; assay type: cell-based, pseudomonas; conditions: read-out: inhibitory rate; for inhibition at 1 ppm: dosage 1 ppm; for inhibition at 5 ppm: dosage 5 ppm
# [3] = system: soft rot in wild cabbages; assay: Field test for controlling soft rot in wild cabbages; assay type: in vivo, wild cabbage; conditions: 7 days after the last application
# Procedure: (§1) In October 2019, tests were carried out in fields of Chinese cabbage, wild cabbage and lettuce in Tai'an, Shandong. The doses of the compounds 152 and 282 of the present disclosure (both prepared as dispersible granules with a mass fraction of 10%) used were 16.87 ga.i./hm^2 and 33.75 ga.i./hm^2, and the control agents used were 3% (by weight) wettable powder of zhongshengmycin and 33.5% (by weight) aqueous suspension of oxine-copper (both were commercially available). The dose of zhongshengmycin was 67.5 ga.i./hm^2, and the dose of oxine-copper was 337.5 ga.i./hm^2. Test and control agents were arranged in randomized blocks. Plot area was 15 m^2. Treatment was repeated 3 times. The route of application was spraying on stem and leaves. The application was performed 2 times in total at an interval of 7 days, and the efficacy investigation was performed 7 days after the last application. During the investigation, sampling was carried out at 5 points in each plot. Disease conditions of soft rot in Chinese cabbages, soft rot in lettuces and soft rot in wild cabbages were recorded according to the relevant technical standard of Pesticide Guidelines for the Field Efficacy Trials GB/T17980.114-2004, and the incidence rate of plants was calculated to further evaluate the control effect.
# [4] = system: pathogenic bacteria causing fruit blotch in watermelons; assay: In vitro bactericidal activity, fruit blotch in watermelons; assay type: cell-based, acidovorax; conditions: read-out: inhibitory rate; for inhibition at 1 ppm: dosage 1 ppm; for inhibition at 5 ppm: dosage 5 ppm
# [5] = system: pathogenic bacteria causing fire blight in pears; assay: In vitro bactericidal activity, fire blight in pears; assay type: cell-based, erwinia; conditions: Erwinia, read-out: inhibitory rate; for inhibition at 1 ppm: dosage 1 ppm; for inhibition at 5 ppm: dosage 5 ppm
# soft rot in lettuces = assay: Field test for controlling soft rot in lettuces; assay type: in vivo, lettuce; conditions: 7 days after the last application
# Procedure: as §1
# [6] = system: pathogenic bacteria causing bacterial wilt in tobacco; assay: whole plant or invertebrate; assay type: cell-based, ralstonia; conditions: read-out: inhibitory rate
# [7] = system: pathogenic bacteria causing bacterial wilt in cassava; assay: organism not typed; assay type: cell-based; conditions: read-out: inhibitory rate
# cucumber seedlings = assay: Safety for plant growth after application; assay type: in vivo; conditions: dosage 200 ppm
# Procedure, shortened: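 Potted cucumber seedlings grown indoors; read-outs: plant-height growth rate, chlorophyll content, leaf area.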
# [8] = system: stem rot in sweet potatoes; assay: whole plant or invertebrate; conditions: read-out: efficacy against stem rot in sweet potatoes
# [9] = system: fruit blotch in watermelons; assay: whole plant or invertebrate; conditions: read-out: efficacy against fruit blotch in watermelons
# [10] = system: soft rot in Chinese cabbages; assay: whole plant or invertebrate; conditions: 48 h, read-out: efficacy against soft rot in Chinese cabbages
# black shank in potatoes = assay: Living crops in vivo protective activity, potatoes (root irrigation); conditions: Solanum tuberosum, read-out: efficacy against black shank in potatoes; for pest or weed control at 5 ppm: dosage 5 ppm; for pest or weed control at 10 ppm: dosage 10 ppm
# Procedure: Root irrigation was carried out on the potatoes for tests according to the designed concentration of the agents. The dosage for each plant was 200 mL and was kept consistent (also for the control). The black shank bacteria were inoculated on the second day after the application. The results were investigated according to the disease condition.
# [11] = system: pathogenic bacteria causing black rot in Chinese cabbages; assay: In vitro bactericidal activity, black rot in Chinese cabbages; assay type: cell-based, xanthomonas; conditions: Xanthomonas, read-out: inhibitory rate; for inhibition at 1 ppm: dosage 1 ppm; for inhibition at 5 ppm: dosage 5 ppm
# [12] = system: indoor potted cucumber seedlings; assay: Effect of improving growth and development of crops; assay type: in vivo; set-up: Rate of growth rate increase (%): concentration or dose not given beside the values; conditions: versus blank control; for Rate of chlorophyll content increase (%) / Rate of leaf area increase (%): 14 days after application; for Rate of growth rate increase (%): plant height 14 days after application; for Rate of leaf area increase (%): second leaf
# Procedure, shortened: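 Pot-grown seedlings kept indoors; height plus second-leaf length (base to tip) and width (upper shoulder) taken pre-treatment and at day 14. Derived: growth-rate increase %, leaf area gain, SPAD chlorophyll gain.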
# [13] = system: pathogenic bacteria causing stem rot in sweet potatoes; assay: In vitro bactericidal activity, stem rot in sweet potatoes; assay type: cell-based, dikia; conditions: read-out: inhibitory rate; for inhibition at 1 ppm: dosage 1 ppm; for inhibition at 5 ppm: dosage 5 ppm
# [14] = system: soft rot in Chinese cabbages; assay: Field test for controlling soft rot in Chinese cabbages; assay type: in vivo, Chinese cabbage; conditions: 7 days after the last application
# Procedure: as §1
# [15] = system: bacterial wilt in tobacco; assay: whole plant or invertebrate; conditions: Nicotiana tabacum, read-out: efficacy against bacterial wilt in tobacco
# bacterial blight in rice = assay: whole plant or invertebrate; conditions: Oryza sativa, read-out: efficacy against bacterial blight in rice
# [16] = system: pathogenic bacteria causing black shank in potatoes; assay: In vitro bactericidal activity, black shank in potatoes; assay type: cell-based; conditions: read-out: inhibitory rate; for inhibition at 1 ppm: dosage 1 ppm; for inhibition at 5 ppm: dosage 5 ppm
# [17] = dose 16.87 g a.i./hm^2, 2 sprays
# [18] = dose 33.75 g a.i./hm^2, 2 sprays
SMILES,inhibition at 1 ppm [1],inhibition at 5 ppm [1],inhibition at 1 ppm [2],inhibition at 5 ppm [2],"Control effect (%) [3, 17]","Control effect (%) [3, 18]",inhibition at 1 ppm [4],inhibition at 5 ppm [4],inhibition at 1 ppm [5],inhibition at 5 ppm [5],Control effect (%) (soft rot in lettuces; [17]),Control effect (%) (soft rot in lettuces; [18]),inhibition at 1 ppm [6],inhibition at 5 ppm [6],inhibition at 1 ppm [7],inhibition at 5 ppm [7],"safety for plant growth (discoloration, necrosis, wilt, malformation) (cucumber seedlings)",pest or weed control at 5 ppm [8],pest or weed control at 10 ppm [8],pest or weed control at 5 ppm [9],further results
"COCCOC(=O)c1cn(C2CC2)c2cc(Cl)c(F)cc2c1=O [Compound 152, 2-methoxyethyl 7-chloro-1-cyclopropyl-6-fluoro-4-oxo-1,4-dihydroquinoline-3-carboxylate]",≥ 90%,≥ 90%,≥ 90%,≥ 90%,82%,93%,≥ 90%,≥ 90%,≥ 90%,≥ 90%,79%,90%,≥ 90%,≥ 90%,≥ 90%,≥ 90%,safe for plant growth,≥ 90%,≥ 90%,≥ 90%,"pest or weed control at 10 ppm [9]: ≥ 90%; pest or weed control at 5 ppm [10]: ≥ 90%; pest or weed control at 10 ppm [10]: ≥ 90%; pest or weed control at 5 ppm (black shank in potatoes): ≥ 90%; pest or weed control at 10 ppm (black shank in potatoes): ≥ 90%; inhibition at 1 ppm [11]: ≥ 90%; inhibition at 5 ppm [11]: ≥ 90%; Rate of chlorophyll content increase (%) [12]: 17%; Rate of growth rate increase (%) [12]: 15%; Rate of leaf area increase (%) [12]: 16%; inhibition at 1 ppm [13]: ≥ 90%; inhibition at 5 ppm [13]: ≥ 90%; Control effect (%) [14, 17]: 86%; Control effect (%) [14, 18]: 96%; pest or weed control at 5 ppm [15]: ≥ 90%; pest or weed control at 10 ppm [15]: ≥ 90%; pest or weed control at 5 ppm (bacterial blight in rice): ≥ 90%; pest or weed control at 10 ppm (bacterial blight in rice): ≥ 90%; inhibition at 1 ppm [16]: ≥ 90%; inhibition at 5 ppm [16]: ≥ 90%"
"CCOc1cc2c(cc1F)c(=O)c(C(=O)OCCOC)cn2C1CC1 [Compound 282, 2-methoxyethyl 1-cyclopropyl-6-fluoro-4-oxo-7-ethoxy-1,4-dihydroquinoline-3-carboxylate]",≥ 90%,≥ 90%,≥ 90%,≥ 90%,80%,87%,≥ 90%,≥ 90%,≥ 90%,≥ 90%,73%,85%,≥ 90%,≥ 90%,≥ 90%,≥ 90%,safe for plant growth,≥ 90%,≥ 90%,≥ 90%,"pest or weed control at 10 ppm [9]: ≥ 90%; pest or weed control at 5 ppm [10]: ≥ 90%; pest or weed control at 10 ppm [10]: ≥ 90%; pest or weed control at 5 ppm (black shank in potatoes): ≥ 90%; pest or weed control at 10 ppm (black shank in potatoes): ≥ 90%; inhibition at 1 ppm [11]: ≥ 90%; inhibition at 5 ppm [11]: ≥ 90%; Rate of chlorophyll content increase (%) [12]: 16%; Rate of growth rate increase (%) [12]: 12%; Rate of leaf area increase (%) [12]: 16%; inhibition at 1 ppm [13]: ≥ 90%; inhibition at 5 ppm [13]: ≥ 90%; Control effect (%) [14, 17]: 82%; Control effect (%) [14, 18]: 90%; pest or weed control at 5 ppm [15]: ≥ 90%; pest or weed control at 10 ppm [15]: ≥ 90%; pest or weed control at 5 ppm (bacterial blight in rice): ≥ 90%; pest or weed control at 10 ppm (bacterial blight in rice): ≥ 90%; inhibition at 1 ppm [16]: ≥ 90%; inhibition at 5 ppm [16]: ≥ 90%"
